From article PMC11468294, “Peptide Amphiphiles as Biodegradable Adjuvants for Efficient Retroviral Gene Delivery” (Advanced Healthcare Materials, 2023)
“Also recorded” adds a separate entry of the source. Where a SMILES comes first, the peptide text is derived from it. The star is where a group is joined. Palmitoyl = CCCCCCCCCCCCCCCC(=O)*

Assays:
[1] = tested on: GALV-RV transduction of Jurkat cells; test: γ-Retroviral infection assay of Jurkat cells (GFP+ cells by flow cytometry); type: cell-based; details: three days after transduction, increasing peptide concentration, performed once
Procedure: γ‐Retroviral Infection Assay of Jurkat cells: 50000 Jurkat cells were seeded in 180 µl supplemented RPMI. The cells were inoculated with 20 µl PNF solution 1:1 (v/v) mixed with virus (1:3.2 dilution) after an incubation time of 10 min. The effect of peptide fibrils on retroviral transduction of Jurkat cells was analyzed 3 days post infection by determining the percentage of GFP + cells by flow cytometry. All assays were conducted as described before.^[ [20] ^]

[2] = tested on: GALV-RV transduction of CD4+ T cells; test: γ-Retroviral transduction assay of CD4+ T cells; type: cell-based, Human; details: GALV-RV, 0.26, 1.3, 6.5 µM; GFP+ cells after 3 days; performed once
Procedure: γ‐Retroviral transduction Assay CD4+ T cells: Human CD4+ T cells were isolated from a Buffy coat using RosetteSep Human CD4+ Enrichment Cocktail ([…] Technologies) according to manufacturer's protocol. Isolated T cells were activated using Dynabeads Human T‐Activator CD3/CD28 (GibcoTM) according to manufacturer's protocol in presence of 10 ng mL^−1 IL‐2 (Miltenyi Biotec) for three days. After 3 days the magnetic Dynabeads were removed using a magnet and T cells were cultured in presence of 9 ng mL^−1 IL‐7 (Miltenyi Biotec) and 10 ng mL^−1 IL‐15 (Miltenyi Biotec). After 1 day 5 × 10^5 T cells were transduced with GALV‐γ‐RV in absence and presence of PA1, PA2, EF‐C (0.26, 1.3 and 6.5 µM) and Vectofusin−1 (10 µg mL^−1; Miltenyi Biotec), or RetroNectin (20 µg mL^−1; Takara Bio). The concentration of the transduction enhancers corresponds to the concentration on cells and in the case for RetroNectin it corresponds to the concentration that was used to precoat the 24‐well plate. The 24‐well plate was coated with RetroNectin and incubated overnight at 4°C. Wells were blocked with PBS containing 2% BSA for 30 min and washed twice with PBS. […] After 3 days GFP+ T cells were analyzed by flow cytometry. Viability was determined using LIVE/DEAD Fixable Aqua Dead Cell Stain Kit (ThermoFisher Scientific) according to manufacturer's protocol. […]

CD4+ T cells = test: Confocal microscopy degradation study with CD4+ T cells; type: in vitro ADME, Human; details: 1 µg peptide (5 µg mL-1) added to 250,000 cells, 37°C, 30 min vs 3 d; Proteostat stain
Procedure: Confocal laser scanning microscopy and degradation study with PA1‐3 and CD4+ T cells: The degradation of the peptide assemblies on CD4+ T cells was determined by analyzing fluorescence microscopy images. To this end, 4 µL of the preassembled peptide fibrils EF‐C, PA1 and PA2 (1 mg mL^−1, 1 d in PBS) were mixed with 4 µL of Proteostat (Enzo Life Science, 1 µL stock in 99 µL PBS) and incubated for 15 min. 2 µL of the stained fibrils were added to 198 µL preactivated and nucleus stained (Hoechst 33 342) CD4+ T cells (200 µL, 0.25 × 10^6) resulting in a final 5 µg mL^−1concentration of the peptide. After incubation for 30 min at 37°C the cells were washed with 3x with PBS and incubated in medium (supplemented RPMI containing IL‐15 and 7). Microscopy was conducted on a Zeiss LSM 710 confocal microscope with 20x and 63x objective and laser excitation wavelengths of 405 nm (Hoechst) and 561 nm (Proteostat). The measurements were performed after 30 min and 3 d of incubation at 37°C without any washing step in between. Control experiments to analyze changes of fibril aggregation were conducted analogously without the presence of cells. The evaluation of aggregate size and number was conducted by analyzing Proteostat stained aggregates via the 3D objects counter function of ImageJ 1.53f51 for 5 individual measurements (area 708.5 µm × 708.5 µm) of three individually repeated experiments.

[3] = Microscopic aggregation (fluorescence / confocal microscopy, derived count rate); type: physicochemical; details: for formation of µm-sized aggregates (in words): fibrils preformed at 1 mg mL-1 in PBS, ThT or Proteostat stain, widefield or confocal microscopy, derived count rate > 1000 kcps as criterion; for assembly in water (fluorescence microscopy): incubated 1 d in pure MilliQ water, ThT stain

Compound: CCCCCCCCCCCCCCCC(=O)N[C@@H](Cc1ccccc1)C(=O)N[C@@H](CCC(N)=O)C(=O)N[C@@H](Cc1ccccc1)C(=O)N[C@@H](CCCCN)C(=O)N[C@@H](Cc1ccccc1)C(=O)N[C@@H](CCCCN)C(=O)N[C@@H](CS)C(N)=O [PA2] (Palmitoyl-FQFKFKC-NH2)
- transduction enhancement of Jurkat cells (GFP+ cells, in words) [1]: strong transduction enhancement similar to EF‐C
- transduction efficacy in primary CD4+ T cells (in words) [2]: in the range of commercially available gold‐standard enhancers RetroNectin and Vectofusin‐1
- degradation of aggregates by CD4+ T cells (in words) (CD4+ T cells): not degraded as efficiently
- formation of µm-sized aggregates (in words) [3]: micrometer‐sized clusters of fibrils were formed; also recorded: high aggregation; also recorded: form µm‐sized aggregates
- assembly in water (fluorescence microscopy) [3]: distinct fibrils

Compound: C16-VVVAAAKKK-NH2 [PA1]
- transduction enhancement of Jurkat cells (GFP+ cells, in words) [1]: strong transduction enhancement similar to EF‐C
- transduction efficacy in primary CD4+ T cells (in words) [2]: in the range of commercially available gold‐standard enhancers RetroNectin and Vectofusin‐1
- degradation of aggregates by CD4+ T cells (in words) (CD4+ T cells): almost all small aggregates of PA1 are degraded by CD4+ T cells
- formation of µm-sized aggregates (in words) [3]: micrometer‐sized clusters of fibrils were formed; also recorded: less aggregation; also recorded: form µm‐sized aggregates
- assembly in water (fluorescence microscopy) [3]: distinct fibrils
